Reference: ChEMBL document CHEMBL1130703, “The use of neamine as a molecular template: inactivation of bacterial antibiotic resistance enzyme aminoglycoside 3'-phosphotransferase type IIa” (Bioorg Med Chem Lett, 1998)

Legend:
[1] = Ratio of kinetic catalyst/Km was determined
[2] = Michaelis constant was determined by native APH(3')-IIa method
[3] = Km was determined by Cyanylated APH(3')-IIa method
[4] = Kinetic constant(Kcat) was determined by native APH(3')-IIa method
[5] = Kinetic catalyst(Kcat) was determined by Cyanylated APH(3')-IIa method

Work on `NC[C@H]1O[C@H](O[C@H]2[C@H](O)[C@@H](O)[C@H](N)C[C@@H]2N)[C@H](N)[C@@H](O)[C@@H]1O` yielded a Ratio [1] of 2.4e+07 M⁻¹ s⁻¹, a Km [2] of 1.2 µM and a Km [3] of 7.9 µM. The k cat [4] was 1740 min⁻¹, the Ratio [5] was 1.3e+06 M⁻¹ s⁻¹ and the k cat [5] was 596 min⁻¹.
